Key:
Type in all cases: cell-based
[1] = tested on: MDA-231-MB breast cancer cells; assay: Induction of apoptosis, activated caspase 3 (FITC-DEVD-FMK fluorescence microscopy); details: 25 μM or similar concentrations, 4 hours at 37° C. (FIG. 11)
Description: DHA and EPA conjugates of propofol are used to test their activities against MDA-231-MB breast cancer cells. Induction of apoptosis was assayed by incubating cells with DHA, EPA, or propofol alone or DHA, EPA with propofol as well as DHA-, and EPA as propofol conjugates for 4 hours at 37° C.

[2] = tested on: breast carcinoma MDA-MB-231 cells; assay: Cell adhesion assay, adherence to human vitronectin; details: 45 min at 37° C., compared with vehicle treated control (FIG. 13)
Description: The cell adhesion assay was performed according to the procedure described in Deryugina, E. I., Ratnikov, B., Postnova, T. I., Rozanov, D. V., Strongin, A. Y. (2002) J. Biol. Chem. 277, 9749-9756. The cell adhesion assay was preformed using cyctomatrix of human vitronectin in a 96-well plate (Chemicon International Incorp. of Temecula, Calif.). Each well was incubated with 100 μL of breast carcinoma MDA-MB-231 cells (1×10^5 cells/ml) at 37° C. for 45 min in a CO2 incubator. Individual wells were treated with one of the following: (a) individual agents: DHA, EPA, and propofol; or (b) the combined agents: DHA and propofol, and EPA and propofol; or (c) the conjugates DHA-propofol, or EPA propofol (prepared as described above in Examples 2 and 3). After incubation, the wells were washed three times with PBS, and the adhered cells were stained with crystal violet in 10% ethanol for 5 min at room temperature. The excess stain was subsequently removed by washing the wells six times with PBS. The stained cells were dissolved in 100 microliters (μL) of solubilizing buffer (1:1 mixture of 0.1M NaH2PO4 at a pH of 4.5 in 50% ethanol) and the absorbance of each of the resulting samples was read at 540 nm. The absorbance of dye in the control (vehicle treated cells) was regarded as 100%, and the percent adherence of treated cells was calculated in comparison to that control.

Jurkat leukemic cells = assay: Jurkat leukemic cell growth and viability (WST-1 Cell Proliferation Kit); details: RVT alone, 10 μM, 24 hours, RPMI media containing 2% serum
Description: In order to evaluate the anti-proliferative activity and synergism between DHA and RVT, the two compounds were added separately to cell cultures containing Jurkat leukemic cells. In a separate experiment, a mixture of DHA and RVT components were added to the Jurkat leukemic cell cultures. The results are illustrated in FIG. 8 as a bar graph. Jurkat cells (Jurkat clone E6-1 from American Type Culture Collection of Manassas, Va. (5×10^4/well)) were incubated with either DHA or RVT, or a combination as indicated in a 96-well plate for 24 hours at 37° C. using a 5% CO2 in RPMI media containing 2% serum. Cell growth and viability were determined using a WST-1 Cell Proliferation Kit (sold by Roche Molecular Biochemicals of Indianapolis, Ind.). The control was a “ethanol-treated” control group. For the results illustrated in FIG. 8, the average was taken of three separate experiments. For the combination of DHA and RVT, a student t test provided a P<0.001 relative to the “ethanol-treated” control group. […] However, when the two components were combined into a single formulation, a synergistic inhibition of Jurkat cell growth was observed. The combination of DHA (30 μM) and RVT (10 μM) inhibited cell growth by about 60%. This is indicative of a synergistic interaction between DHA and RVT on cancer cell growth. […]

Jurkat cells = assay: Jurkat leukemic cell apoptosis (YO-PRO-1 labeling, flow cytometry)
Description: The DHA-RVT ester prepared according to Example 1 was dissolved in DMSO. This solution was used to treat Jurkat cells labeled with YO-PRO-1 (sold by Molecular Probes of Oregon), which is a green fluorescent dye used in flagging apoptotic cells. The labeled cells were analyzed using a FACStar-plus flow cytometer equipped with a water-cooled argon laser emitting at a frequency of 488 nm. Detection of the fluorescent probe was ascertained using a 530±30 band-pass filter. The data depicted in FIGS. 10a-c are illustrated in the form of a histogram. The fluorescent intensity is indicative of apoptotic expression. The unfilled histogram represents the labeled, non-treated cells (1); the filled histogram represents the treated cells (2). […] At approximately 1 μM concentration, the DHA-RVT ester induced apoptosis in approximately 50% of the Jurkat cells (FIG. 10b) while at a concentration of 0.1 μM the ester had little effect on the Jurkat cells (FIG. 10c). Concentrations of resveratrol (10 μM) plus DHA (10 μM) have no effect on Jurkat cell growth.

Compound	induction of apoptosis [1]	inhibition of adherence of cancerous cells to vitronectin [2]	other results
CCC=CCC=CCC=CCC=CCC=CCC=CCCC(=O)Oc1c(C(C)C)cccc1C(C)C [DHA-propofol, 2,6 Diisopropylphenyldocosa-Hexaenoate]	effectively induced apoptosis	inhibition of adherence	
CC/C=C\C/C=C\C/C=C\C/C=C\C/C=C\CCCC(=O)O [EPA, eicosopentenoic acid, reference compound]	not very effective	not displayed	
CCC=CCC=CCC=CCC=CCC=CCCCC(=O)Oc1c(C(C)C)cccc1C(C)C [EPA-propofol, 2,6-Diisopropylphenyl Eicosopentenoate]	effectively induced apoptosis	inhibition of adherence	
Oc1ccc(C=Cc2cc(O)cc(O)c2)cc1 [RVT, resveratrol]			effect on Jurkat cell growth (Jurkat leukemic cells): neither the DHA (up to 30 μM) nor the RVT (10 μM) alone had any significant effect
CC(C)c1cccc(C(C)C)c1O [propofol, 2,6-diisopropylphenol, reference compound]	not very effective	not displayed	
resveratrol ester of docosahexaenoic acid [DHA-RVT ester]			effect on Jurkat cells (apoptosis) (Jurkat cells; 0.1 μM (FIG. 10c)): little effect; apoptosis of Jurkat cells (Jurkat cells; 10 μM (FIG. 10a)): apoptosis in nearly all; Jurkat cells in which apoptosis was induced (Jurkat cells; approximately 1 μM (FIG. 10b)): approximately 50%
